# Literature values in patent publication US20050009793A1, “Treatment of liver disease with active vitamin D compounds” (Novacea, Inc., priority 2002, published 2005).
# Details: in vivo
row,SMILES,Hypercalcemic effect compared to calcitriol
1,C=C1/C(=C\C=C2/CCC[C@]3(C)C([C@H](C)CC#CC(C)(C)O)=CC[C@@H]23)C[C@@H](O)C[C@@H]1O [Ro23-7553],reduced hypercalcemic effect
2,C=C1/C(=C/C=C2\CCC[C@]3(C)C([C@H](C)CC#CC(O)(C(F)(F)F)C(F)(F)F)=CC[C@@H]23)C[C@@H](O)C[C@@H]1O [Ro24-5531],reduced hypercalcemic effect
